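In this assay, cells in 96-well plates receive the compound at five concentrations for 48 hours. Endpoints are linearly interpolated between the surrounding concentrations. The concentration for 50% growth inhibition is given as GI50.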 The source made the active and inactive calls. No stated cut-off is given here; in the data, active = GI50 up to about 1.1 µM and inactive = higher.

Some test systems named below: ACHN; CAKI-1; HL-60; KM12; MDA-MB-231; MDA-MB-435; Malme-3M; NCI-H226; NCI-H23; NCI-H522; NCI/ADR-RES; SF-539; SK-MEL-28; SK-OV-3; TK-10; U-251; UO-31; SK-MEL-2; SNB-19.
What all share (experiment): inhibition of tumour cell growth, NCI panel, 48 h

Regarding `COc1ccc(CNc2nc3ccccc3nc2-c2cccs2)cc1`, the GI50 is 57.5 µM (inactive) in the assay on ACHN; 15.1 µM (inactive) with CAKI-1; 61.7 µM (inactive) in the assay with HL-60; 28.9 µM (inactive) in the assay on KM12; 23.6 µM (inactive) with MDA-MB-231; 27.4 µM (inactive) with MDA-MB-435. The GI50 in the assay on Malme-3M is 50.1 µM (inactive); in the assay with NCI-H226 it was > 100 µM (inactive); in the assay on NCI-H23 it was 62.4 µM (inactive); with NCI-H522 it was 23.5 µM (inactive); in the assay on NCI/ADR-RES it was 17.4 µM (inactive); with SF-539, > 100 µM (inactive). In addition, the GI50 is > 100 µM (inactive) in the assay with SK-MEL-28; 43.4 µM (inactive) in the assay on SK-OV-3; 94.2 µM (inactive) with TK-10; 28.8 µM (inactive) with U-251; 15.4 µM (inactive) in the assay on UO-31.

Turning to `C=CC(=O)NC(=N)NC#N`, the GI50 in the assay on ACHN was 121 µM (inactive); in the assay on CAKI-1, 69 µM (inactive); in the assay with HL-60 it was 26.9 µM (inactive); in the assay on KM12, > 100 µM (inactive); in the assay with Malme-3M, 145 µM (inactive); in the assay with NCI-H226, 200 µM (inactive). The GI50 in the assay with NCI-H23 is 188 µM (inactive); with NCI-H522, 18 µM (inactive); in the assay with NCI/ADR-RES it was > 100 µM (inactive); in the assay on SF-539 it was 164 µM (inactive); with SK-MEL-28 it was 131 µM (inactive); in the assay on SK-MEL-2, > 100 µM (inactive). Moreover, the GI50 in the assay on SK-OV-3 was 175 µM (inactive); in the assay with SNB-19 it was 363 µM (inactive); in the assay on TK-10 it was 142 µM (inactive); in the assay with U-251, 158 µM (inactive); with UO-31 it was 176 µM (inactive).

On to `CC1=NN(c2nc(N)nc(CN3CCOCC3)n2)C(C)(C)C1`, for which the GI50 in the assay with ACHN was 31.8 µM (inactive); in the assay with CAKI-1 it was 20.2 µM (inactive); in the assay on HL-60, 15.2 µM (inactive); with KM12 it was > 100 µM (inactive); with MDA-MB-231, > 100 µM (inactive); in the assay on MDA-MB-435 it was > 100 µM (inactive). Also, the GI50 in the assay on NCI-H226 is > 100 µM (inactive); in the assay with NCI-H23 it was > 100 µM (inactive); in the assay on NCI-H522 it was 14 µM (inactive); in the assay with NCI/ADR-RES, > 100 µM (inactive); in the assay with SF-539 it was > 100 µM (inactive); with SK-MEL-28 it was > 100 µM (inactive). In addition, the GI50 in the assay with SK-MEL-2 is > 100 µM (inactive); in the assay with SK-OV-3, > 100 µM (inactive); with SNB-19, > 100 µM (inactive); in the assay on TK-10, > 100 µM (inactive); in the assay with U-251, > 100 µM (inactive); in the assay with UO-31 it was 18.1 µM (inactive).

Turning to `Cc1ccc(/C=c2\cc3oc(=O)c4cccc(c4-3)c2=O)cc1`, the GI50 with ACHN is > 100 µM (inactive); in the assay on CAKI-1, > 100 µM (inactive); in the assay on HL-60, 39.1 µM (inactive); in the assay with MDA-MB-231, > 100 µM (inactive); in the assay on MDA-MB-435, > 100 µM (inactive); in the assay on Malme-3M, > 100 µM (inactive). In addition, the GI50 in the assay with NCI-H23 is > 100 µM (inactive); in the assay with NCI-H522, 38.1 µM (inactive); with NCI/ADR-RES it was > 100 µM (inactive); in the assay on SF-539, > 100 µM (inactive); in the assay on SK-MEL-28, > 100 µM (inactive); with SK-MEL-2, > 100 µM (inactive). Moreover, the GI50 was > 100 µM (inactive) in the assay with SK-OV-3; > 100 µM (inactive) with SNB-19; > 100 µM (inactive) in the assay on TK-10; 63.7 µM (inactive) in the assay with U-251; > 100 µM (inactive) in the assay with UO-31.

Regarding `O=C(Nc1cc(C(F)(F)F)ccc1Cl)C(=O)C(C(=O)c1ccc2ccccc2c1)C1OC(=O)c2ccccc21` (stereo not given), the GI50 with ACHN is 17 µM (inactive); in the assay on CAKI-1, 7.21 µM (inactive); with HL-60, 11 µM (inactive); in the assay with KM12 it was 13.3 µM (inactive); in the assay on Malme-3M, 11.6 µM (inactive); in the assay with NCI-H226 it was 0.881 µM (active). Moreover, the GI50 with NCI-H23 was 5.26 µM (inactive); in the assay with NCI-H522, 4.29 µM (inactive); in the assay with SF-539, 2.08 µM (inactive); in the assay on SK-MEL-28, 5.13 µM (inactive); in the assay with SK-MEL-2, 12.6 µM (inactive); in the assay with SK-OV-3, 31.3 µM (inactive). Also, the GI50 was 6.21 µM (inactive) with SNB-19, 20.7 µM (inactive) in the assay on TK-10, 2 µM (inactive) with U-251 and 12.4 µM (inactive) in the assay with UO-31.

(Values after ChEMBL document CHEMBL1201862, “PubChem BioAssay data set” (2004).)
